Experimental data published in PubChem BioAssay (NCI).
Values joined by “and” are separate entries in the source; they are usually repeats but may differ in a detail not shown here. Equal entries are not always repeated.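 Cells were grown in 96-well plates and exposed to each compound for 48 hours at five concentrations; endpoints were interpolated linearly between bracketing concentrations, or set to the highest concentration if not reached. GI50: concentration for 50% inhibition of growth. At the TGI there is no net growth.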

Columns and labels:
Experiment in all cases: DTP human tumour cell line panel, 48 h
HS 578T breast = tested on: HS 578T breast
SK-MEL-2 melanoma = tested on: SK-MEL-2 melanoma
OVCAR-4 ovarian = tested on: OVCAR-4 ovarian
OVCAR-5 ovarian = tested on: OVCAR-5 ovarian
T-47D breast = tested on: T-47D breast
ACHN renal = tested on: ACHN renal
SK-MEL-28 melanoma = tested on: SK-MEL-28 melanoma
KM12 colon = tested on: KM12 colon
UO-31 renal = tested on: UO-31 renal
A549 NSCLC = tested on: A549 NSCLC

| Compound | TGI (HS 578T breast) | TGI (SK-MEL-2 melanoma) | TGI (OVCAR-4 ovarian) | TGI (OVCAR-5 ovarian) | TGI (T-47D breast) | TGI (ACHN renal) | TGI (SK-MEL-28 melanoma) | TGI (KM12 colon) | TGI (UO-31 renal) | TGI (A549 NSCLC) | GI50 (HS 578T breast) [µM] | GI50 (SK-MEL-2 melanoma) | GI50 (OVCAR-4 ovarian) | GI50 (OVCAR-5 ovarian) [µM] | GI50 (T-47D breast) [µM] | GI50 (ACHN renal) [µM] | GI50 (SK-MEL-28 melanoma) [µM] | GI50 (KM12 colon) [µM] | GI50 (UO-31 renal) [µM] | GI50 (A549 NSCLC) [µM] |
| --- | --- | --- | --- | --- | --- | --- | --- | --- | --- | --- | --- | --- | --- | --- | --- | --- | --- | --- | --- | --- |
| COC1C=COC2(C)Oc3c(C)c(O)c4c(O)c(c(C5SCCS5)c(O)c4c3C2=O)NC(=O)C(C)=C/C=C\C(C)C2OC(C)(C)OC(C2C)C(C)C(OC(C)=O)C1C (configuration not stated) | 63.3 µM | 23.2 µM | 54.7 µM | > 100 µM | > 100 µM | 6.53 µM | > 100 µM | > 100 µM | 32.6 µM | 22.6 µM |  |  |  |  |  |  |  |  |  |  |
| COc1ccc(-c2nn(-c3ccc(NC(=O)Nc4cc(C(F)(F)F)cc(C(F)(F)F)c4)cc3)cc2-c2ccncc2)cc1Cl | 6.76 µM | 4.38 µM | 60.7 µM | 14.7 µM | 83.3 µM | 58.5 µM | 6.18 µM | 7.73 µM | 6.33 µM | > 100 µM | 1.53 | 1.93 µM | 2.82 µM | 2.64 | 4.1 | 2.75 | 2.22 | 2.1 | 1.51 | 2.84 |
| Cc1cc(NCc2ccccc2)c2ccccc2[n+]1CCCCCCCCCC[n+]1c(C)cc(NCc2ccccc2)c2ccccc21 | 11.6 µM | 2.08 µM | > 100 µM | 12.7 µM | 1.41 µM | 2.92 µM | 2.16 µM | 0.796 µM | 7.15 µM | 4.39 µM |  |  |  |  |  |  |  |  |  |  |
| N#Cc1c(Cl)cc(Cl)n2c1nc1ccccc12 | 32.8 µM | 33.4 µM | 34 µM | 41.9 µM | 31.8 µM | 6.65 µM | 20.3 µM | 33.1 µM | 13.5 µM | 34.7 µM |  |  |  |  |  |  |  |  |  |  |
| Cc1ccc(S(=O)(=O)NC(=O)N[C@@H](Cc2cnc[nH]2)C(=O)O)cc1 | > 100 µM | > 100 µM | > 100 µM | > 100 µM | > 100 µM | > 100 µM | > 100 µM | > 100 µM | > 100 µM | > 100 µM |  |  |  |  |  |  |  |  |  |  |
| CC(C)(C)OC(=O)NCCCNC1(c2cc3ccccc3s2)CCCCC1 | 45.7 µM | 37.6 µM | 29.5 µM | 27.5 µM | 39.7 µM | 33.6 µM | 29.9 µM | 33.1 µM | 25.4 µM | 27.2 µM |  |  |  |  |  |  |  |  |  |  |
| C#C[C@]1(O)CC[C@H]2[C@@H]3CCC4=C/C(=N/OC(=O)c5cccc6c(=O)c7ccccc7[nH]c56)CC[C@@H]4[C@H]3CC[C@@]21C | > 100 µM | > 100 µM | > 100 µM | > 100 µM | 91.1 µM | > 100 µM | > 100 µM | > 100 µM | > 100 µM | > 100 µM |  |  |  |  |  |  |  |  |  |  |
| CN(C)CCOC1(Cc2ccc(F)cc2)CCC(C(C)(C)C)CC1 (configuration not stated) | 32.3 µM and 28 µM | 24.4 µM and 8.73 µM | 15 µM and 22.5 µM | 21 µM and 20.5 µM | 17.1 µM and 13.7 µM | 23.5 µM and 25.7 µM | 14.7 µM and 12 µM | 19.3 µM and 18.1 µM | 19.2 µM and 18.2 µM | 22 µM and 25.3 µM |  | 10.8 µM and 2.78 µM | 4.33 µM and 9.3 µM |  |  |  |  |  |  |  |
| COc1ccc2c(cnc3c4cc(OC)c(OC)cc4ccc23)c1 | > 100 µM | > 100 µM | > 100 µM | > 100 µM | > 100 µM | > 100 µM | > 100 µM | > 100 µM | > 100 µM | > 100 µM |  |  |  |  |  |  |  |  |  |  |
| Cn1c2ccccc2c(=O)c2cccc(C(=O)NC(CCCN=C(N)N)C(=O)O)c21 (configuration not stated) | > 100 µM | > 100 µM | > 100 µM | > 100 µM | > 100 µM | > 100 µM | > 100 µM | > 100 µM | > 100 µM | > 100 µM |  |  |  |  |  |  |  |  |  |  |
| COc1ccc2c(c1)CCN1CCc3ccccc3CC21 (configuration not stated) | > 100 µM | > 100 µM | > 100 µM | > 100 µM | > 100 µM | > 100 µM | 98.5 µM | > 100 µM | 36 µM | > 100 µM |  |  |  |  |  |  |  |  |  |  |
| On1c(-c2ccccc2)nc2ccccc2c1=S | > 100 µM | 42.8 µM | > 100 µM | > 100 µM | > 100 µM | > 100 µM | > 100 µM | > 100 µM | > 100 µM | > 100 µM |  |  |  |  |  |  |  |  |  |  |
| COc1nc2nccnc2c(=O)n1C | > 10 µM | > 10 µM | > 10 µM | > 10 µM | > 10 µM | > 10 µM | > 10 µM | > 10 µM | > 10 µM | > 10 µM |  |  |  |  |  |  |  |  |  |  |
| Nc1nc(Cl)cc(NCC2(CO)CCCC2)n1 | > 100 µM | > 100 µM | > 100 µM | > 100 µM | > 100 µM | > 100 µM | > 100 µM | > 100 µM | > 100 µM | > 100 µM |  |  |  |  |  |  |  |  |  |  |
| CC12CCC(O)CC1CCC1C2CCC2(C)C(C(=O)CC(O)C(F)(F)F)CCC12 (configuration not stated) | > 80 µM | > 100 µM | > 100 µM | > 76.5 µM | > 100 µM | > 100 µM | > 100 µM | > 100 µM | 11.1 µM | > 100 µM |  |  |  |  |  |  |  |  |  |  |
